Assay results published in PMC4138103 (PLoS ONE, 2014).
“And” between values parts separate entries of the source, which are not always exact repeats. Equal entries are not always repeated. Where two headings read alike, the source gives them in different places.

Experiments:
[1] = test system: Sprague-Dawley rats; assay: Serum thyroid hormones (FT3, FT4, TSH); type: in vivo, Rattus norvegicus; conditions: for Emax: Rattus norvegicus; for TSH / fT3 / fT4: group mean
Protocol: Serum free triiodothyronine (FT3), free thyroxine (FT4) and thyroid stimulating hormone (TSH) were measured by Elecsys 2010 immunochemistry analyzer using Roche FT3, FT4 and TSH reagents (all from Roche Diagnostics GmbH, Mannheim, Germany). The test principle is electrochemiluminescence immunoassay (ECLIA).
Data were also analyzed using the BMD method, which is based on dose-response modeling of the full data set using a nested family of exponential and Hill models. The analyses were done on data of males and females combined, using sex as a covariate. […] In that case, different Critical Effect Doses (CEDs) and CEDs at the lowest bound of the confidence interval (CED-L) were generated for each sex. If no difference between sexes is detected, a CED and CED-Ls for the combined data is generated. However, this was also done if the curve fits are close, and separate analyses for males and females were then performed manually. CEDs and CED-Ls were calculated at the predefined Critical Effect Size (CES) of 5% (EFSA standard) or 10%.

[2] = cited from earlier work
[3] = F, CES 5%, model E2, adipose tissue concentration based
[4] = F, CES 5%, model E2, adipose tissue concentration based, half min value added to zeros
[5] = F, CES 10%, model E2, adipose tissue concentration based
[6] = F, CES 10%, model E2, adipose tissue concentration based, half min value added to zeros
[7] = M, CES 5%, model E4, adipose tissue concentration based
[8] = M, CES 5%, model E4, adipose tissue concentration based, half min value added to zeros
[9] = M, CES 10%, model E4, adipose tissue concentration based
[10] = M, CES 10%, model E4, adipose tissue concentration based, half min value added to zeros
[11] = females, CES 5%, total dose based
[12] = females, CES 5%, total dose based, half min value added to zeros
[13] = females, CES 10%, total dose based
[14] = females, CES 10%, total dose based, half min value added to zeros
[15] = females, adipose tissue concentration based
[16] = females, total dose 10 mg/kg bw
[17] = females, total dose 30 mg/kg bw
[18] = females, total dose 100 mg/kg bw
[19] = females, total dose 300 mg/kg bw
[20] = females, total dose 1000 mg/kg bw
[21] = females, total dose 1700 mg/kg bw
[22] = males, CES 5%, total dose based
[23] = males, CES 5%, total dose based, half min value added to zeros
[24] = males, CES 10%, total dose based
[25] = males, CES 10%, total dose based, half min value added to zeros
[26] = males, adipose tissue concentration based
[27] = males, total dose 1000 mg/kg bw
[28] = males, total dose 1700 mg/kg bw

In the case of `Clc1cc(Cl)c(-c2cc(Cl)c(Cl)c(Cl)c2Cl)cc1Cl` [PCB 180, 2,2′,3′,4,4′,5,5′-heptachlorobiphenyl], the “CED, Serum free T3 (S-fT3)” value [1, 3] is reported as 2280 µg/g lipid, the “CED, Serum free T4 (S-fT4)” value [1, 3] is reported as 821 µg/g lipid and the “CED-L, Serum free T3 (S-fT3)” value [1, 3] is reported as 1496 µg/g lipid. The “CED-L, Serum free T4 (S-fT4)” value [1, 3] was 683 µg/g lipid, the “CED, Serum TSH” value [1, 4] was 206 µg/g lipid and the “CED-L, Serum TSH” value [1, 4] was 126 µg/g lipid. For the same compound, the “CED, Serum free T3 (S-fT3)” value [1, 5] was 4680 µg/g lipid, the “CED, Serum free T4 (S-fT4)” value [1, 5] was 1690 µg/g lipid and the “CED-L, Serum free T3 (S-fT3)” value [1, 5] was 3072 µg/g lipid. For the same compound, the “CED-L, Serum free T4 (S-fT4)” value [1, 5] was 1402 µg/g lipid, the “CED, Serum TSH” value [1, 6] was 402 µg/g lipid and the “CED-L, Serum TSH” value [1, 6] was 246 µg/g lipid. The “CED, Serum free T3 (S-fT3)” value [1, 7] was 428 µg/g lipid, the “CED, Serum free T4 (S-fT4)” value [1, 7] was 158 µg/g lipid and the “CED-L, Serum free T3 (S-fT3)” value [1, 7] was 196 µg/g lipid. For the same compound, the “CED-L, Serum free T4 (S-fT4)” value [1, 7] was 117 µg/g lipid, the “CED, Serum TSH” value [1, 8] was 0.29 µg/g lipid and the “CED-L, Serum TSH” value [1, 8] was 0.04 µg/g lipid. The “CED, Serum free T3 (S-fT3)” value [1, 9] was 976 µg/g lipid, the “CED, Serum free T4 (S-fT4)” value [1, 9] was 328 µg/g lipid and the “CED-L, Serum free T3 (S-fT3)” value [1, 9] was 449 µg/g lipid. The “CED-L, Serum free T4 (S-fT4)” value [1, 9] was 243 µg/g lipid, the “CED, Serum TSH” value [1, 10] was 0.58 µg/g lipid and the “CED-L, Serum TSH” value [1, 10] was 0.09 µg/g lipid. The Emax ([1]; F, model E2, controls vs high dose according to the fitted model, read-out: Maximum response, Serum free T3 (S-fT3)) was -22.5%, the Emax ([1]; females, controls vs high dose, fitted model, read-out: Serum free T3 (S-fT3), Maximum response) was -21.8% and the Emax ([1]; males, controls vs high dose, fitted model, read-out: Serum free T3 (S-fT3), Maximum response) was -26%. For the same compound, the Emax ([1]; read-out: Maximum response, Serum free T4 (S-fT4), F, model E2, controls vs high dose according to the fitted model) was -50.7%, the Emax ([1]; read-out: Maximum response, Serum free T4 (S-fT4), M, model E4, controls vs high dose according to the fitted model) was -67.2% and the Emax ([1]; read-out: Serum free T4 (S-fT4), Maximum response, females, controls vs high dose, fitted model) was -49.4%. For the same compound, the Emax ([1]; read-out: Serum free T4 (S-fT4), Maximum response, males, controls vs high dose, fitted model) was -66.7%, the Emax ([1]; model E4, controls vs high dose according to the fitted model, read-out: Maximum response, Serum free T3 (S-fT3)) was -25% and the “fT3, Dose response” value ([1]; females) was “D, T”. For the same compound, the “fT4, Dose response” value ([1]; females) was “D, T”, the “Serum free T3 (S-fT3), CED” value [1, 11] was 354 mg/kg bw and the “Serum free T3 (S-fT3), CED-L” value [1, 11] was 233 mg/kg bw. For the same compound, the “Serum free T4 (S-fT4), CED” value [1, 11] was 128 mg/kg bw, the “Serum free T4 (S-fT4), CED-L” value [1, 11] was 106.6 mg/kg bw and the “Serum TSH, CED” value [1, 12] was 32.5 mg/kg bw. For the same compound, the “Serum TSH, CED-L” value [1, 12] was 19.9 mg/kg bw, the “Serum free T3 (S-fT3), CED” value [1, 13] was 727 mg/kg bw and the “Serum free T3 (S-fT3), CED-L” value [1, 13] was 479 mg/kg bw. For the same compound, the “Serum free T4 (S-fT4), CED” value [1, 13] was 263 mg/kg bw, the “Serum free T4 (S-fT4), CED-L” value [1, 13] was 219 mg/kg bw and the “Serum TSH, CED” value [1, 14] was 63.5 mg/kg bw. For the same compound, the “Serum TSH, CED-L” value [1, 14] was 38.8 mg/kg bw, the “Serum free T3, CED” value [1, 15] was 2280 µg/g lipid and the “Serum free T4, CED” value [1, 15] was 821 µg/g lipid. It also gave a TSH ([1]; females, total dose 3 mg/kg bw) of 0.047 µIU/ml, a fT3 ([1]; females, total dose 3 mg/kg bw) of 5.72 pmol/L and a fT4 ([1]; females, total dose 3 mg/kg bw) of 22.2 pmol/L. The TSH [1, 16] was 0.000136 µIU/ml, the fT3 [1, 16] was 5.10 pmol/L and the fT4 [1, 16] was 19.1 pmol/L. For the same compound, the TSH [1, 17] was 0.00543 µIU/ml, the fT3 [1, 17] was 6.17 pmol/L and the fT4 [1, 17] was 23.4 pmol/L. For the same compound, the TSH [1, 18] was 0.011 µIU/ml, the fT3 [1, 18] was 6.20 pmol/L and the fT4 [1, 18] was 22.4 pmol/L. For the same compound, the TSH [1, 19] was 0.021 µIU/ml, the fT3 [1, 19] was 5.68 pmol/L and the fT4 [1, 19] was 18.0 pmol/L. It also gave a TSH [1, 20] of 0.011 µIU/ml, a fT3 [1, 20] of 5.16 pmol/L and a fT4 [1, 20] of 15.3 pmol/L. The TSH [1, 21] was 0.066 µIU/ml, the fT3 [1, 21] was 4.70 pmol/L and the fT4 [1, 21] was 11.1 pmol/L. The “Increased serum TSH, CED-L” value ([1]; males) was 0.04 µg/g lipid, the “TSH, Dose response” value ([1]; males) was “D, T” and the “fT3, Dose response” value ([1]; males) was “D, T”. The “fT4, Dose response” value ([1]; males) was “D, T”, the “Serum free T3 (S-fT3), CED” value [1, 22] was 290 mg/kg bw and the “Serum free T3 (S-fT3), CED-L” value [1, 22] was 218 mg/kg bw. The “Serum free T4 (S-fT4), CED” value [1, 22] was 38.1 mg/kg bw, the “Serum free T4 (S-fT4), CED-L” value [1, 22] was 26.8 mg/kg bw and the “Serum TSH, CED” value [1, 23] was 0.07 mg/kg bw and 0.0747 mg/kg bw. The “Serum TSH, CED-L” value [1, 23] was 0.0139 mg/kg bw, the “Serum free T3 (S-fT3), CED” value [1, 24] was 596 mg/kg bw and the “Serum free T3 (S-fT3), CED-L” value [1, 24] was 448 mg/kg bw. The “Serum free T4 (S-fT4), CED” value [1, 24] was 79.4 mg/kg bw, the “Serum free T4 (S-fT4), CED-L” value [1, 24] was 56.0 mg/kg bw and the “Serum TSH, CED” value [1, 25] was 0.149 mg/kg bw. The “Serum TSH, CED-L” value [1, 25] was 0.0278 mg/kg bw, the “Serum TSH, CED” value [1, 26] was 0.29 µg/g lipid and the “Serum free T3, CED” value [1, 26] was 428 µg/g lipid. The “Serum free T4, CED” value [1, 26] was 158 µg/g lipid, the “Serum thyroxine, CED-L” value [1, 26] was 117000 ng/g lipid and the TSH ([1]; males, total dose 3 mg/kg bw) was 0.021 µIU/ml. For the same compound, the fT3 ([1]; males, total dose 3 mg/kg bw) was 5.74 pmol/L, the fT4 ([1]; males, total dose 3 mg/kg bw) was 25.4 pmol/L and the TSH ([1]; males, total dose 10 mg/kg bw) was 0.057 µIU/ml. For the same compound, the fT3 ([1]; males, total dose 10 mg/kg bw) was 5.58 pmol/L, the fT4 ([1]; males, total dose 10 mg/kg bw) was 28.4 pmol/L and the TSH ([1]; males, total dose 30 mg/kg bw) was 0.059 µIU/ml. For the same compound, the fT3 ([1]; males, total dose 30 mg/kg bw) was 5.77 pmol/L, the fT4 ([1]; males, total dose 30 mg/kg bw) was 27.2 pmol/L and the TSH ([1]; males, total dose 100 mg/kg bw) was 0.089 µIU/ml. The fT3 ([1]; males, total dose 100 mg/kg bw) was 5.39 pmol/L, the fT4 ([1]; males, total dose 100 mg/kg bw) was 21.7 pmol/L and the TSH ([1]; males, total dose 300 mg/kg bw) was 0.075 µIU/ml. The fT3 ([1]; males, total dose 300 mg/kg bw) was 5.24 pmol/L, the fT4 ([1]; males, total dose 300 mg/kg bw) was 17.6 pmol/L and the TSH [1, 27] was 0.100 µIU/ml. It also gave a fT3 [1, 27] of 4.21 pmol/L, a fT4 [1, 27] of 11.7 pmol/L and a TSH [1, 28] of 0.137 µIU/ml. The fT3 [1, 28] was 4.41 pmol/L, the fT4 [1, 28] was 8.71 pmol/L and the Elimination half-life ([2]; adult humans, estimated) was 11.5 years. For the same compound, the Elimination half-life ([2]; early adolescent children) was 9.8 years.
